The source made the active and inactive calls.
Tests used:
[1] = Mtb BioA inhibitors by displacement, dose response, biochemical, coupled fluorescence displacement, 20-point, dry powder (AID 743357); type: functional
[2] = biological target: RNA-editing ligase 1, mitochondrial (Trypanosoma brucei brucei, UniProt P86926); experiment: TbREL1 ligase inhibitors, dose response, biochemical, fluorescence, Trypanosoma brucei (AID 1117295); type: functional
[3] = cytotoxicity in COV362 ovarian cancer cells, dose response, cytotoxicity control for PAX8 inhibitor project, cell-based, plate reader, dry powder, SA12 (AID 743144); type: functional
[4] = inhibitors of firefly luciferase expression or activity, dose response, H4 neuroglioma cells, luminescence (AID 1990); type: functional, cell-based
[5] = cytotoxicity in OVCAR4 cells, dose response, cytotoxicity control for PAX8 inhibitor project, cell-based, plate reader, dry powder, SA11 (AID 743150); type: functional; conditions: OVCAR-4
[6] = cytotoxicity in OV-90 ovarian cancer cells, dose response, PAX8 inhibitor project, cell-based, plate reader, dry powder, SA8 (AID 743149); type: functional
Paired box protein Pax-8 = Paired box protein Pax-8 (Homo sapiens, UniProt Q06710); experiment: inhibitors of PAX8-driven TPO luciferase reporter, dose response, RMG-I cells, cherry-pick (AID 687027); type: functional, cell-based;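 further: luciferase reporter driven by Pax8 target thyroperoxidase promoter measured by SteadyGlo luminescence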
[7] = PAX5 activity inhibitors, dose response, selectivity assay for PAX8 inhibitor project, cell-based, plate reader, dry powder samples (AID 743047); type: functional;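 further: HEK293 cells carrying a Pax5 driven CD19 promoter luciferase reporter; potency of inhibitors that lower reporter luminescence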
[8] = NIH:OVCAR-3 ovarian cancer cell cytotoxicity, dose response, PAX8 inhibitor project, plate reader, dry powder samples (AID 743044); type: functional, cell-based
[9] = IOSE-T80 ovarian epithelial cell cytotoxicity, dose response, cytotoxicity control for PAX8 inhibitor project, plate reader, dry powder samples (AID 743045); type: functional, cell-based
cells [10] = type: functional, cell-based
[11] = cytotoxicity in HEK-293T cells, dose response, cytotoxicity control for TCR NF-kB inhibitor project, luminescence, T-cell screen hits (AID 489026); type: functional, cell-based;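 further: cells exposed to compound about 14 hours before the viability readout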
[12] = biological target: T1, Nuclear receptor subfamily 0 group B member 1 (Homo sapiens, UniProt P51843); type: functional, cell-based;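 further: HEK293T cells transfected with SF-1 and DAX-1 plus StAR promoter luciferase reporter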
T1 sequence (P51843 whole entry): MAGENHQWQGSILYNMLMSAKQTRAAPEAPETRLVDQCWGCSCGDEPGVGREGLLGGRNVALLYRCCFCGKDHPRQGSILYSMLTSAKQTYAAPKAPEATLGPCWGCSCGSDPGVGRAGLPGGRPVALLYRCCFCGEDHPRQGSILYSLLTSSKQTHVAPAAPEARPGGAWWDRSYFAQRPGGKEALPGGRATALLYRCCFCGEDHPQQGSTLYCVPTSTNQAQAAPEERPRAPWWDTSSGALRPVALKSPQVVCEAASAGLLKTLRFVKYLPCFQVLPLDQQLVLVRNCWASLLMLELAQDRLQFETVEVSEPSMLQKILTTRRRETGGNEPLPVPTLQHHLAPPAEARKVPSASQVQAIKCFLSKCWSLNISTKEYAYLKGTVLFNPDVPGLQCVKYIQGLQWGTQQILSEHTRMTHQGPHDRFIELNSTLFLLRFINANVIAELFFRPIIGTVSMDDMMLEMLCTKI

[13] = PAX2 cell-based inhibition, dose response, selectivity assay for PAX8 inhibitor project, plate reader, dry powder samples (AID 743048); type: functional;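 further: HEK293 cells carrying a WT1 promoter luciferase reporter driven by expressed Pax2; potency is for inhibition of Pax2 driven reporter signal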
[14] = IGROV1 ovarian cancer cell cytotoxicity, dose response, PAX8 inhibitor project, plate reader, dry powder samples (AID 743043); type: functional, cell-based; conditions: IGROV-1
[15] = A2780 ovarian cancer cell cytotoxicity, dose response, cytotoxicity control, plate reader, dry powder samples (AID 743046); type: functional, cell-based
cells [16] = type: functional, cell-based; remark: listed apart in the source
[17] = inhibitors of SNCA 5'UTR-driven reporter translation, confirmation, H4 neuroglioma cells, luminescence (AID 1988); type: functional, cell-based
[18] = cytotoxicity dependent on PAX8, dose response, cell-based, plate reader, dry powder (AID 743049); type: functional
[19] = inhibitors of SNCA 5'UTR-driven translation, confirmation, luminescence, H4 neuroglioblastoma cells, dose confirmation (AID 2454); type: functional, cell-based;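 further: H4 neuroglioblastoma cells carrying an alpha-synuclein 5'UTR luciferase reporter; potency for inhibition of the luciferase signal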
[20] = cytotoxicity in COV434 cells, dose response, cytotoxicity control for PAX8 inhibitor project, cell-based, plate reader, dry powder, SA7 (AID 743145); type: functional
[21] = luciferase reporter signal reduction – luminescence, H4-C neuroglioblastoma cells, dose response (AID 2458); type: functional, cell-based;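 further: H4 neuroglioblastoma cells stably carrying a luciferase reporter gene fusion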
[22] = HeLa 2N DNA content increase, dose response, cell-based, IC50 (AID 1117349); type: functional
[23] = HeLa 4N DNA content increase, dose response, cell-based, IC50 (AID 1117351); type: functional

RNA-editing ligase 1, mitochondrial, sequence (P86926 whole entry): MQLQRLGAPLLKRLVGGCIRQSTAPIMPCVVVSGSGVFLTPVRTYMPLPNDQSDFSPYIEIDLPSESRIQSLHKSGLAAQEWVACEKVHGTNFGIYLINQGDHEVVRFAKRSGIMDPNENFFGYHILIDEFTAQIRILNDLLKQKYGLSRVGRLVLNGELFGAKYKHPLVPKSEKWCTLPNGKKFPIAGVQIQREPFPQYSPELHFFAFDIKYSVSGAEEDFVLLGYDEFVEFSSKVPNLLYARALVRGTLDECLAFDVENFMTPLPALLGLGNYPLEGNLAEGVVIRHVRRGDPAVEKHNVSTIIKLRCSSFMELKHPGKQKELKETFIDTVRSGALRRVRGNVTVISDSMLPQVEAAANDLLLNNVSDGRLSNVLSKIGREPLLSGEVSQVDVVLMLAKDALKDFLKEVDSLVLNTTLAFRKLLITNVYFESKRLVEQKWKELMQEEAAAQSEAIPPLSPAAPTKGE
Paired box protein Pax-8, sequence (Q06710 whole entry): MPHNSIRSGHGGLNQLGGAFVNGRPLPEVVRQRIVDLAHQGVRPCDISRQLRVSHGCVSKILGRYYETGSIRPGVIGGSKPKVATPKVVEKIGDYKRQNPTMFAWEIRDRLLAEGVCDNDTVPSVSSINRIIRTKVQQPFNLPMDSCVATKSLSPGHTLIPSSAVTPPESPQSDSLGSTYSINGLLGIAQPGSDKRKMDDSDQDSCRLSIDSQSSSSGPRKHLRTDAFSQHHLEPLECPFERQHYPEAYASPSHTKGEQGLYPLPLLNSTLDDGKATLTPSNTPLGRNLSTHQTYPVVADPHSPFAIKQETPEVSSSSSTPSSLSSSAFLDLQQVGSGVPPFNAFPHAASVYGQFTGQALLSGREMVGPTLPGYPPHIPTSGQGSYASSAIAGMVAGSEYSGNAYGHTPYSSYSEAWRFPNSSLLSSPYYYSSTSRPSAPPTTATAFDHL

## O=C(c1ccc2c(c1)OCO2)N1CCN(c2ccc(S(=O)(=O)C(F)F)cc2)CC1
[1]
  AC50: 16700 nM (active)

## C=CCNC1=NC(c2ccccc2C(F)(F)F)C(C(=O)OC)=C(C)N1Cc1cccc(C(F)(F)F)c1 (centres undefined)
[2]
  IC50: > 96600 nM (inactive)

## CN[C@H]1CCc2cc(OC)c(OC)c(OC)c2-c2ccc(OC)c(=O)cc21 [DEMECOLCINE]
[3]
  AC50: 96.6 nM (active)
[4]
  EC50: < 100 nM (active)
[5]
  AC50: 113 nM (active)
[6]
  AC50: 48.8 nM (active)
Paired box protein Pax-8
  AC50: < 260 nM (active)
[7]
  AC50: > 100000 nM (inactive)
[8]
  AC50: 318 nM (active)
[9]
  AC50: 113 nM (active)
Cells [10]
  EC50: 80 nM (active)
[11]
  IC50: > 80000 nM (inactive)
[12]
  IC50: > 834 nM (active)
[13]
  AC50: 217 nM (active)
[14]
  AC50: 6350 nM (active)
[15]
  AC50: 234 nM (active)
Cells [16]
  IC50: > 67600 nM (inactive)
[17]
  EC50: < 100 nM (active)
[18]
  AC50: 96.7 nM (active)
[19]
  EC50: 85 nM (active)
[20]
  AC50: 61.5 nM (active)
[21]
  EC50: 78 nM (active)

## CC(=O)Oc1ccccc1C(=O)Nc1ncc([N+](=O)[O-])s1 [NITAZOXANIDE]
[22]
  IC50: > 10000 nM (inactive)
[23]
  IC50: > 10000 nM (inactive)
